Measured values published in US6989443B2, “Carboranylporphyrins and uses thereof” (Brookhaven Science Associates, LLC, priority 2004, dated 2006).

Experiments:
malignant brain tumors = settings: in vivo; cited from earlier work
EMT-6 mammary carcinomas = assay: Biodistribution of porphyrin IX in mice bearing EMT-6 carcinomas (tissue boron analyses); format: in vivo, BALB/c mice; settings: for Average boron concentration, Blood / Average boron concentration, Brain / Average boron concentration, EMT-6 Tumor / Average boron concentration, Liver: 87 mg/kg (30 mg B/kg) in 3 i.p. injections over 8 hours, n = 5
Procedure: (§1) BALB/c mice bearing subcutaneously implanted EMT-6 mammary carcinomas implanted on the dorsal thorax were given a total dose of 87 milligrams porphyrin compound (IX) per kilogram body weight (30 mg B/kg) in 3 intraperitoneal (i.p.) injections over a period of 8 hours. At two and four days after the last injection, mice were euthanized, and tumor, blood, brain, and liver were removed for boron analyses. The blood was first analyzed for hematologic parameters that indicate toxicity before it was analyzed for boron.

[1] = Weight changes and hematologic parameters from porphyrin (IX) in mice; settings: for % Weight change / Granulocytes / Lymphocytes / Platelets: median (and range)
Procedure: as §1

[2] = 2 days after last injection, 87 mg/kg (30 mg B/kg)
[3] = 4 days after last injection, 87 mg/kg (30 mg B/kg)

## N[C@@H](Cc1ccc(B(O)O)cc1)C(=O)O [BPA, p-boronophenylalanine]
Malignant brain tumors
  chemical toxicity: low chemical toxicity

## Copper meso-5,10,15,20-tetrakis[3-(3,5-o-dicarboranyl methoxybenzyloxy)phenyl]porphyrin [Porphyrin compound (IX)]
EMT-6 mammary carcinomas; 2 days after last injection
  Average boron concentration, Blood: 0.5 ± 0.2 μg B/g
  Average boron concentration, Brain: 0.2 ± 0.0 μg B/g
  Average boron concentration, EMT-6 Tumor: 43.5 ± 10.0 μg B/g
  Average boron concentration, Liver: 353 ± 55 μg B/g
EMT-6 mammary carcinomas; 4 days after last injection
  Average boron concentration, Blood: 0.2 ± 0.1 μg B/g
  Average boron concentration, Brain: 0.3 ± 0.2 μg B/g
  Average boron concentration, EMT-6 Tumor: 27.8 ± 7.6 μg B/g
  Average boron concentration, Liver: 250 ± 70 μg B/g
EMT-6 mammary carcinomas; EMT-6 tumor-bearing mice, compared with tumor to blood ratio
  tumor to brain boron ratio: even higher
EMT-6 mammary carcinomas; particularly at the two-day time-point
  tumor boron concentrations, adequacy for therapy: adequate for therapy
[1]; 87 mg/kg (30 mg B/kg)
  weight change compared to solvent-injected mice: no differences between porphyrin- and solvent-injected mice
[1]; 2-day time point
  platelet count compared to solvent-only mice: small but significant decrease
[1]; 4-day time point
  platelet count compared to solvent-only group: rebounded to a level greater than those from the solvent-only group
[1]; [2]
  % Weight change: 0.4 (−4.9–2.5) %
  Granulocytes: 53 (42–60) % WBC
  Lymphocytes: 44 (37–56) % WBC
  Platelets: 193 (51–432) 10^3/mm^3
[1]; [3]
  % Weight change: −0.6 (−4.7–1.5) %
  Granulocytes: 62 (57–67) % WBC
  Lymphocytes: 35 (30–39) % WBC
  Platelets: 917 (670–1128) 10^3/mm^3
